Experimental data taken from PMC9630929 (Journal of medicinal chemistry, 2022).

Key:
PBRM1-BD5 = details: cited from earlier work
SMARCA2 bromodomain [1] = details: cited from earlier work
SMARCA2 bromodomain [2] = details: DSF; cited from earlier work
PC3 cells = details: 0.1, 1, 10 μM; compound 7 up to 100 μM
SMARCA2B bromodomain [3] = molecular target: SMARCA2B bromodomain (Homo sapiens, UniProt P51531); format: binding; details: DSF, 100 μM inhibitor, 10 μM bromodomain
[4] = test system: other tested bromodomains; details: DSF, 100 μM inhibitor, 10 μM bromodomain
[5] = test system: LNCaP cells expressing shRNA against PBRM1 or vector control; format: cell-based, human; details: 10 μM, 5 days
[6] = Solubility observed in the AlphaScreen assay; format: physicochemical; details: at tested concentrations
SMARCA2B bromodomain [7] = details: cited from earlier work

SMARCA2B bromodomain (Homo sapiens, UniProt P51531), sequence (P51531 1373-1493 isoform P51531-2 limits assumed): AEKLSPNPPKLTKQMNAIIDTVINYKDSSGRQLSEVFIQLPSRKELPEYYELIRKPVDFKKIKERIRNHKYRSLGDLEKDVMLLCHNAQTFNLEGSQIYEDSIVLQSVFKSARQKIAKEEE

For `CN(C)/C=C1\CCn2c1nc(=O)c1c(Cl)cccc12` [Compound 2, (E)-6-Chloro-3-((dimethylamino)methylene)-2,3-dihydropyrrolo[1,2-a]quinazolin-5(1H)-one], which “binding toward PBRM1-BD5” value (PBRM1-BD5) is on record?
The value was “nanomolar binding”.

What about the “binding toward SMARCA2 bromodomain” value (SMARCA2 bromodomain [1]) of the same compound?
The value was “nanomolar binding”.

Which “ΔTm SMARCA2 bromodomain” value (SMARCA2 bromodomain [2]) does the source give for `CCC(/C=C1\CCn2c1nc(=O)c1c(Cl)cccc12)CC` [Compound 7, (E)-6-Chloro-3-(2-ethylbutylidene)-2,3-dihydropyrrolo[1,2-a]quinazolin-5(1H)-one] here?
The value was over 2.5 °C.

What about the “growth inhibition of PC3 cells” value (PC3 cells) of the same compound?
Its value is “more substantial inhibition”.

With `Cc1ccccc1C1NC(=O)c2c(Cl)cccc2N1` (centres unmarked) [Compound 15, 5-Chloro-2-(2-methylphenyl)-2,3-dihydroquinazolin-4(1H)-one] as the compound, how does the “SMARCA2B ΔTm” value (SMARCA2B bromodomain [3]) read?
The value was “did not exhibit detectable thermal stabilization”.

What about the “thermal stabilization of the other tested bromodomains (ΔTm)” value [4] of the same compound?
Its value is under 1 °C.

Which “SMARCA2B ΔTm” value (SMARCA2B bromodomain [3]) does the source give for `Cc1cccc(C2NC(=O)c3c(Cl)cccc3N2)c1` (centres unmarked) [Compound 16, 5-Chloro-2-(3-methylphenyl)-2,3-dihydroquinazolin-4(1H)-one] here?
Its value is “did not exhibit detectable thermal stabilization”.

What about the “growth inhibition of PC3 cells” value (PC3 cells) of the same compound?
Its value is “do not inhibit the growth”.

And the “effect on LNCaP viability with native PBRM1 vs PBRM1 knockdown” value [5]?
Its value is “more significant effect on LNCaP viability in cells with native PBRM1 levels than in cells with PBRM1 knockdown”.

Which “solubility in the AlphaScreen assay” value [6] does the source give for `Cc1cc(C)c(C2NC(=O)c3c(Cl)cccc3N2)c(C)c1` (centres unmarked) [Compound 22, 5-Chloro-2-(2,4,6-trimethylphenyl)-2,3-dihydroquinazolin-4(1H)-one] here?
Its value is “solubility issues”.

For `Cc1cccc(C2NC(=O)c3c(Br)cccc3N2)c1` (centres unmarked) [Compound 34, 5-Bromo-2-(3-methylphenyl)-2,3-dihydroquinazolin-4(1H)-one], which “growth inhibition of PC3 cells” value (PC3 cells) is on record?
The value was “do not inhibit the growth”.

With `CCC(CC)C1CC12CCn1c2nc(=O)c2c(Cl)cccc21` (centres unmarked) [LM146] as the compound, how does the “binding toward SMARCA2B bromodomain” value (SMARCA2B bromodomain [7]) read?
The value was “low micromolar affinity”.

Which results are given for `O=C(/C=C/N1C[C@H]2C[C@@H]1CN2c1ccccn1)c1ccccc1O` [PFI-3]?
binding toward PBRM1-BD5 (PBRM1-BD5): nanomolar binding; binding toward SMARCA2 bromodomain (SMARCA2 bromodomain [1]): nanomolar binding
